Test results as given in patent US8383139B2 (Bayer CropScience AG, priority 2008, dated 2013).

Experiment: log P by HPLC on reversed-phase columns (C 18), EEC Directive 79/831 Annex V.A8
Assay type: physicochemical
Conditions: [a] HPLC, acid region pH 2.3, 0.1% aqueous phosphoric acid and acetonitrile

| Compound | log p |
| --- | --- |
| Cc1cc(Oc2nc(Cc3ccc(Cl)cc3)ns2)c(C)cc1N=CN(C)CC(F)F [Example 53] | 2.18^[a] |
| CCN(C)C=Nc1cc(C)c(Oc2nc(Cc3ccc(F)c(F)c3)ns2)cc1C [Example 54] | 1.86^[a] |
| Cc1cc(Oc2nc(Cc3ccc(F)cc3F)ns2)c(C)cc1N=CN1CCCCC1 [Example 55] | 2.02^[a] |
| CCN(C)C=Nc1cc(C)c(Oc2nc(Cc3ccc(OC(F)(F)F)cc3)ns2)cc1C [Example 56] | 2.21^[a] |
| Cc1cc(Oc2nc(Cc3ccc(F)cc3)ns2)c(C)cc1N=CN1CCCCC1 [Example 57] | 2.05^[a] |
| Cc1cc(Oc2nc(Cc3ccc(OC(F)(F)F)cc3)ns2)c(C)cc1N=CN1CCCCC1 [Example 58] | 2.71^[a] |
| Cc1cc(Oc2nc(Cc3cccc(Br)c3)ns2)c(C)cc1N=CN1CCCCC1 [Example 59] | 2.23^[a] |
| CCN(C)C=Nc1cc(C)c(Oc2nc(Cc3ccc(F)cc3)ns2)cc1C [Example 60] | 1.74^[a] |
| CCN(C)C=Nc1cc(C)c(Oc2nc(Cc3ccccc3Cl)ns2)cc1C [Example 61] | 1.97^[a] |
| Cc1cc(Oc2nc(Cc3ccccc3Cl)ns2)c(C)cc1N=CN1CCCCC1 [Example 62] | 2.43^[a] |
| Cc1cc(Oc2nc(Cc3ccc(F)c(F)c3)ns2)c(C)cc1N=CN1CCCCC1 [Example 63] | 2.39^[a] |
| CCN(C)C=Nc1cc(C)c(Oc2nc(Cc3ccc([N+](=O)[O-])cc3)ns2)cc1C [Example 64] | 2.11^[a] |
| CCN(C)C=Nc1cc(C)c(Oc2nc(Cc3cccc(Br)c3)ns2)cc1C [Example 65] | 2.38^[a] |
| CCN(C)C=Nc1cc(C)c(Oc2nc(Cc3cc(F)ccc3F)ns2)cc1C [Example 67] | 1.66^[a] |
| Cc1ccccc1Cc1nsc(Oc2cc(C)c(N=CN3CCCCC3)cc2C)n1 [Example 68] | 2.06^[a] |
| CCN(C)C=Nc1cc(C)c(Oc2nc(Cc3ccc(C#N)cc3)ns2)cc1C [Example 69] | 1.63^[a] |
| Cc1cc(Oc2nc(Cc3ccc(-c4ccccc4)cc3)ns2)c(C)cc1N=CN1CCCCC1 [Example 70] | 2.45^[a] |
| CCN(C)C=Nc1cc(C)c(Oc2nc(Cc3ccc(C(F)(F)F)cc3)ns2)cc1C [Example 71] | 2.29^[a] |
| CCN(C)C=Nc1cc(C)c(Oc2nc(Cc3ccccc3C)ns2)cc1C [Example 72] | 1.89^[a] |
| CCN(C)C=Nc1cc(C)c(Oc2nc(Cc3ccc(-c4ccccc4)cc3)ns2)cc1C [Example 73] | 2.8^[a] |
| CCN(C)C=Nc1cc(C)c(Oc2nc(Cc3c(F)cccc3Cl)ns2)cc1C [Example 74] | 2.33^[a] |
| CCN(C)C=Nc1cc(C)c(Oc2nc(Cc3ccc(OC)cc3)ns2)cc1C [Example 75] | 2.98^[a] |
| COc1ccc(Cc2nsc(Oc3cc(C)c(N=CN4CCCCC4)cc3C)n2)cc1 [Example 76] | 1.9^[a] |
| Cc1cc(Oc2nc(Cc3c(F)cccc3Cl)ns2)c(C)cc1N=CN1CCCCC1 [Example 77] | 2.12^[a] |

Same assay, conditions: pH 2.3, given in synthesis examples; read-out: log P (pH2.3)

| Compound | chromatographic logP |
| --- | --- |
| O=c1oc(C2(c3ccc(Cl)cc3)CC2)ns1 | 3.59 |

Same assay, conditions: reversed-phase C18 HPLC column, pH 2.3, [a] HPLC, acid region pH 2.3, 0.1% aqueous phosphoric acid and acetonitrile; read-out: log p

| Compound | chromatographic logP |
| --- | --- |
| Cc1cc(Oc2nc(C(C)c3ccc(Cl)cc3)ns2)c(Cl)cc1N=CN1CCCCC1 (centres unmarked) [Example 21, 5-chloro-4-({3-[1-(4-chlorophenyl)ethyl]-1,2,4-thiadiazol-5-yl}oxy)-2-methyl-N-(piperidin-1-ylmethylidene)aniline] | 2.67 |

Same assay, conditions: reversed-phase C18 HPLC column, pH 2.3, pH 2.3, given in synthesis examples; read-out: log P (pH2.3)

| Compound | chromatographic logP |
| --- | --- |
| Cc1ccc(S(=O)(=O)c2nc(C3(c4ccc(Cl)cc4)CC3)ns2)cc1 [3-[1-(4-Chlorophenyl)cyclopropyl]-5-[(4-methylphenyl)sulphonyl]-1,2,4-thiadiazole] | 4.97 |
| Cc1cc(Oc2nc(C3(c4ccc(Cl)cc4)CC3)ns2)c(C)cc1N [4-({3-[1-(4-Chlorophenyl)cyclopropyl]-1,2,4-thiadiazol-5-yl}oxy)-2,5-dimethylaniline] | 4.44 |
| Cc1cc(Oc2nc(Cc3cccc(Cl)c3)ns2)c(C)cc1N [4-{[3-(3-Chlorobenzyl)-1,2,4-thiadiazol-5-yl]oxy}-2,5-dimethylaniline] | 3.68 |
